The source of these data is patent publication USRE36520E, “HMG-CoA reductase inhibitors” (Merck & Co., Inc., priority 1998, dated 2000).

Sequence of HMG-CoA reductase (P51639 425-887 limits assumed): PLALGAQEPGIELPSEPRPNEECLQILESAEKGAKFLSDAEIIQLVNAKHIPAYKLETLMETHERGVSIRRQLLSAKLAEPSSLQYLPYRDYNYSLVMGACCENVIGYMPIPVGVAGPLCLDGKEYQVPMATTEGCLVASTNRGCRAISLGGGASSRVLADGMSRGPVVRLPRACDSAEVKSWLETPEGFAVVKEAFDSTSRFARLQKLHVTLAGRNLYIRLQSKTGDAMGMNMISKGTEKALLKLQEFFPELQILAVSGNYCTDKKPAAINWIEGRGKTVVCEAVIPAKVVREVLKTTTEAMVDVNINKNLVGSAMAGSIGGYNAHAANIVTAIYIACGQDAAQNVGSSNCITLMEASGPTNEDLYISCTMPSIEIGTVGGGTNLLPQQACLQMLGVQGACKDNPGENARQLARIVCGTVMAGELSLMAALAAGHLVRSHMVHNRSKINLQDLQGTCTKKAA

The first series concerns HMG-CoA reductase. The series is described as follows: HMG-CoA reductase inhibition assay (in vitro protocol of J. Med. Chem., 28, 347-358). It counts as biochemical. As to conditions: relative to compactin arbitrarily assigned a value of 100; IC50 compared with that of compactin determined simultaneously; tested as sodium salt of dihydroxy acid form; enzyme solubilized from rat liver microsomes. The protocol:
The intrinsic HMG-CoA reductase inhibition activity of the claimed compounds is measured in the in vitro protocol published in J. Med. Chem., 28, p. 347-358 (1985) and described below: Male Holtzman Sprague-Dawley rats (225-250 g) were kept on reversed lighting and fed Purina rat chow containing 3% cholestyramine for 7 days preceding their sacrifice by CO2 asphyxiation. Livers were removed 6 hours into the dark cycle and used immediately to prepare microsomes. HMG-CoA reductase was solubilized from the freshly prepared microsomes by the method of Heller and Shrewsbury [J. Biol. Chem., 1976, 251, 3815] and purified through the second ammonium sulfate precipitation step as described by Kleinsek et al. [Proc. Natl. Acad. Sci. USA, 1977, 74, 1431]. […] The enzyme preparation was stored at -80° C. The assay is essentially the procedure of Shefer et al. [J. Lipid Res., 1972, 13, 402]. The complete assay medium contained the following in a total volume of 0.8 ml: phosphate buffer, pH 7.2, 100 mM; MgCl2, 3 mM; NADP, 3 mM; glucose-6-phosphate, 10 mM; glucose-6-phosphate dehydro-genase, 3 enzyme units; reduced glutathione, 50 mM; HMG-CoA (qlutaryl-3-^14 C, New England Nuclear), 0.2 mM (0.1 μCi); and partially purified enzyme stock solution, 100 μL. […] After a 40-minute incubation at 37° C. with shaking and exposure to air, the reaction was stopped by the addition of 0.4 mL of 8N HCl. After an additional 30-minute incubation period at 37° C. to ensure the complete lactonization of mevalonic acid to mevalonolactone, 0.2 ml of the mixture was added to an 0.5×5.0 cm column containing 100-200 mesh Bio-Rex 5, chloride form (Bio-Rad), wetted with distilled water, as described by Alberts et al. [Proc. Natl. Acad. Sci. U.S.A., 1980, 77, 3967]. The unreacted [^14 C]HMG-CoA was absorbed on the resin and the [^14 C]mevalonolactone was eluted with distilled water (2×1 ml) directly into 7-ml scintillation vials. Five milliliters of Aquasol-2 (New England Nuclear) was added to each vial, and radioactivity was measured in a Packard Tri Carb Prias scintillation counter. IC50 values were determined by plotting percentage inhibition against test compound concentration and fitting a straight line to the resulting data by using the least-squares method.
For the compound “6(R)-[2-[8(S)-(2,2-Dimethylbutyryloxy)-6(R)-carboxy-2(S)-methyl-1,2,6,7,8,8a(R)-hexahydronaphthyl-1(S)]ethyl]-4(R)-hydroxy-3,4,5,6-tetrahydro-2H-pyran-2-one [db -- db R CO2 H 1,1-dimethylpropyl]”, the “Relative Potency” value is 94.
Turning to “6(R)-[2-[8(S)-(2,2-Dimethylbutyryloxy)-6(S)-carboxy-2(S)-methyl-1,2,6,7,8,8a(R)-hexahydronaphthyl-1(S)]ethyl]-4(R)-hydroxy-3,4,5,6-tetrahydro-2H-pyran-2-one [db -- db S CO2 H 1,1-dimethylpropyl]”, the “Relative Potency” value came out at 99.
As for “6(R)-[2-[8(S)-(2,2-dimethylbutyryloxy)-2(S)-methyl-6(S)-(2,2-dimethylbutyryloxymethyl)-1,2,3,4,4a(S),5,6,7,8,8a(S)-decahydronaphthyl-1(S)]ethyl]-4(R)-hydroxy-3,4,5,6-tetrahydro-2H-pyran-2-one”, the “Relative Potency” value is on record as 100.
On the same count and under the same terms, to “6(R)-[2-[8(S)-(2-methylbutyryloxy)-2(S)-methyl-6(R)-(hydroxymethyl)-1,2,6,7,8,8a(R)-hexahydronaphthyl-1(S)]ethyl]-4(R)-hydroxy-3,4,5,6-tetrahydro-2H- pyran-2-one [db -- db R CH2 OH sec-butyl]” belongs 47; to “6(R)-[2-[8(S)-(2,2-Dimethylbutyryloxy)-6(S)-(N,N-dimethyl)aminocarbonyl-2(S)methyl-1,2,6,7,8,8a(R)-hexahydronaphthyl-1(S)]ethyl]-4(R)-hydroxy-3,4,5,6-tetrahydro-2H-pyran-2-one [db -- db S CONMe2 1,1-dimethylpropyl]”, 82.
As for “6(R)-[2-[8(S)-(2,2-dimethylbutyryloxy)-2(S)-methyl-6(R)-(1-hydroxyethyl)-1,2,3,4,4a(S),5,6,7,8,8a(S)-decahydronaphthyl-1(S)]ethyl]-4(R)-hydroxy-3,4,5,6-tetrahydro-2H-pyran-2-one [-- -- -- R CHOHCH3 (ISOMER A) 1,1-dimethylpropyl]”, the “Relative Potency” value was 111.
The same measure, in the same setting: with “6(R)-[2-[8(S)-(2,2-Dimethylbutyryloxy)-2(S)-methyl-6(S)-aminocarbonyl-1,2,3,4,4a(S),5,6,7,8,8a(S)-decahydronaphthyl-1(S)]ethyl]-4(R)-hydroxy-3,4,5,6- tetrahydro-2H-pyran-2-one [-- -- -- S CONH2 1,1-dimethylpropyl]” the figure was 107; with “6(R)-[2-[8(S)-(2,2-dimethylbutyryloxy)-2(S)-methyl-6(R)-(1-hydroxyethyl)-1,2,3,4,4a(S),5,6,7,8,8a(S)-decahydronaphthyl-1(S)]ethyl]-4(R)-hydroxy-3,4,5,6-tetrahydro-2H-pyran-2-one [-- -- -- R CHOHCH3 (ISOMER B) 1,1-dimethylpropyl]”, 104.
On to “6(R)-[2-[8(S)-(2,2-dimethylbutyryloxy)-2(S)-methyl-6(S)-hydroxymethyl-1,2,3,4,4a(S),5,6,7,8,8a(S)-decahydronaphthyl-1(S)]ethyl]-4(R)-hydroxy-3,4,5,6- tetrahydro-2H-pyran-2-one [-- -- -- S CH2 OH 1,1-dimethylpropyl]”, for which the “Relative Potency” value is reported as 86.
Regarding “6(R)-[2-[8(S)-(2,2-Dimethylbutyryloxy)-2(S)-methyl-6(S)-(α-hydroxybenzyl)-1,2,3,4,4a(S),5,6,7,8,8a-(S)-decahydronaphthyl-1(S)]ethyl]-4(R)-hydroxy-3,4,5,6-tetrahydro-2H-pyran-2-one [-- -- -- S CHOHPH 1,1-dimethylpropyl]”, the “Relative Potency” value came to 220.
Still for that read-out and setting: to “6(R)-[2-[8(S)-(2-methylbutyryloxy)-6(S)-carboxy-2(S)-methyl-1,2,6,7,8,8a(R)-hexahydronaphthyl-1(S)]ethyl]-4(R)-hydroxy-3,4,5,6-tetrahydro-2H-pyran-2- one [db -- db S CO2 H sec-butyl]” belongs 26; to “6(R)-[2-[8(S)-(2,2-Dimethylbutyryloxy)-6(S)-hydroxymethyl-2(S)-methyl-1,2,6,7,8,8a(R)-hexahydronaphthyl-1(S)]ethyl]-4(R)-hydroxy-3,4,5,6-tetrahydro-2H-pyran-2-one [db -- db S CH2 OH 1,1-dimethylpropyl]”, 189.
On the same count and under the same terms, with “6(R)-[2-[8(S)-(2,2-Dimethylbutyryloxy)-2(S)-methyl-6(S)-isopropoxycarbonyl-1,2,3,4,4a(S),5,6,7,8,8a(S)-decahydronaphthyl-1(S)]ethyl]-4(R)-hydroxy-3,4,5,6-tetrahydro-2H-pyran-2-one [-- -- -- S CO2-i-Pr 1,1-dimethylpropyl]” the figure was 80; with “6(R)-[2-[8(S)-(2,2-dimethylbutyryloxy)-2(S)-methyl-6(S)-(1-hydroxyethyl)-1,2,3,4,4a,(S),5,6,7,8,8a(R)-decahydronaphthyl-1(S)]ethyl]-4(R)-hydroxy-3,4,5,6-tetrahydro-2H-pyran-2-one [-- -- -- S CHOHCH3 (ISOMER A) 1,1-dimethylpropyl]”, 131; with “6(R)-[2-[8(S)-(2,2-dimethylbutyryloxy)-2(S)-methyl-6(S)-(1-hydroxyethyl)-1,2,3,4,4a,(S),5,6,7,8,8a(R)-decahydronaphthyl-1(S)]ethyl]-4(R)-hydroxy-3,4,5,6-tetrahydro-2H-pyran-2-one [-- -- -- S CHOHCH3 (ISOMER B) 1,1-dimethylpropyl]”, 113.
Same read-out and setting: with “6(R)-[2-[8(S)-(2,2-Dimethylbutyryloxy)-2(S)-methyl-6(S)-ethoxycarbonyl-1,2,3,4,4a(S),5,6,7,8,8a(S)-decahydronaphthyl-1(S)]ethyl]-4(R)-hydroxy-3,4,5,6-tetrahydro-2H-pyran-2-one [-- -- -- S CO2 Et 1,1-dimethylpropyl]” the figure was 125; with “6(R)-[2-[8(S)-(2,2-Dimethylbutyryloxy)-6(R)-(2,2-dimethylbutyryloxymethyl)-2(S)-methyl-1,2,3,4,6,7,8,8a(R)-octahydronaphthyl-1(S)]-ethyl]-4(R)-hydroxy-3,4,5,6-tetrahydro-2H-pyran-2-one”, 33.
Take “6(R)-[2-[8(S)-(2,2-dimethylbutyryloxy)-6(S)-(N,N-diethyl)aminocarbonyl-2(S)-methyl-1,2,6,7,8,8a(R)-hexahydronaphthyl-1(S)]ethyl]-4(R)-hydroxy-3,4,5,6-tetrahydro-2H-pyran-2-one [db -- db S CONEt2 1,1-dimethylpropyl]”: the “Relative Potency” value stood at 65.
The same measure, in the same setting: to “6(R)-[2-[8(S)-(2,2-Dimethylbutyryloxy)-6(R)-hydroxymethyl-2(S)methyl-1,2,3,4,6,7,8,8a(R)-octahydronaphthyl-1(S)]ethyl]-4(R)-hydroxy-3,4,5,6-tetrahydro-2H-pyran-2-one [db -- -- R CH2 OH 1,1-dimethylpropyl]” belongs 213; to “6(R)-[2-[8(S)-(Cyclohexylcarbonyloxy)-6(S)-hydroxymethyl-2(S)-methyl-1,2,3,4,4a(S),5,6,7,8,8a(S)-decahydronaphthyl-1(S)]ethyl]-4(R)-hydroxy-3,4,5,6-tetrahydro-2H-pyran-2-one [-- -- -- S CH2 OH cyclohexyl]”, 33.
On the same count and under the same terms, with “6(R)-[2-[8(S)-(2,2-Dimethylbutyryloxy)-2(S)-methyl-6(S)-carboxy-1,2,3,4,4a(S),5,6,7,8,8a(S)-decahydronaphthyl-1(S)]-ethyl]-4(R)-hydroxy-3,4,5,6-tetrahydro-2H-pyran-2-one [-- -- -- S CO2 H 1,1-dimethylpropyl]” the figure was 79.
Turning to “6(R)-[2-[8(S)-(2,2-Dimethylbutyryloxy)-2(S)-methyl-6(S)-(N,N-dimethyl)aminocarbonyl-1,2,3,4,4a(S),5,6,7,8,8a(S)-decahydronaphthyl-1(S)]-ethyl]-4(R)-hydroxy-3,4,5,6-tetrahydro-2H-pyran-2-one [-- -- -- S CONMe2 1,1-dimethylpropyl]”, the “Relative Potency” value was found to be 75.

System in a further series: not listed separately
The series is described as follows: Stability of the free dihydroxy acid on standing. It counts as physicochemical. To be noted: dihydroxy acid can be maintained by increasing the pH above 7.0. The protocol:
The sodium salt of the compound II from Example 64 is dissolved in 2 ml of ethanol-water (1:1; v:v) and added to 10 ml of 1N hydrochloric acid from which the dihydroxy acid is extracted with ethyl acetate. The organic extract is washed once with water, dried (Na2 SO4), and evaporated in vacuo with a bath temperature not exceeding 30° C. […] The dihydroxy acid can be maintained by increasing the pH above 7.0.
On to `CCC(C)(C)C(=O)O[C@H]1C[C@@H](CO)C[C@@H]2CC[C@H](C)[C@H](CC[C@@H](O)C[C@@H](O)CC(=O)O)[C@H]21` [Example 70], for which the “reversion of dihydroxy acid to parent lactone” value was “slowly reverts to the corresponding,parent lactone on standing”.
